The source made the active and inactive calls. The calls are words filed in the database; no cut-off is given here.
How the values were obtained:
[1] = target: T1, Endonuclease III-like protein 1 (Homo sapiens) (UniProt P78549); assay: Inhibition of NTH1 (unknown origin) assessed as remaining enzyme activity at 50 uM incubated for 40 mins by TAMRA fluorescence-based assay
T1 sequence (whole entry): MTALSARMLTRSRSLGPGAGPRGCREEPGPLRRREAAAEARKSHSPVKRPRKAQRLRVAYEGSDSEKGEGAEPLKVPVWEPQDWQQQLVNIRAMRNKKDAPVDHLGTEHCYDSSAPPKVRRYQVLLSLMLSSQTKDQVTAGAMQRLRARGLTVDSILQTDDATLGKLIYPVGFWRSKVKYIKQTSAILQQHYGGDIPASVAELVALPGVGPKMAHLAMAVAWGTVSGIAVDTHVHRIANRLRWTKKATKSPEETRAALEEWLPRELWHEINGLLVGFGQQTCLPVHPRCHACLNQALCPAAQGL

Endonuclease 8-like 1 [2] = target: T2, Endonuclease 8-like 1 (Homo sapiens, UniProt Q96FI4); assay: Inhibition of NEIL1 (unknown origin) assessed as remaining enzyme activity at 50 uM using Sp/Gh substrate incubated for 40 mins by TAMRA fluorescence-based assay
Endonuclease 8-like 1 [3] = target: T2, Endonuclease 8-like 1; assay: Inhibition of NEIL1 (unknown origin) using Sp/Gh substrate incubated for 40 mins by TAMRA fluorescence-based assay
N-glycosylase/DNA lyase [4] = target: T3, N-glycosylase/DNA lyase (Homo sapiens, UniProt O15527); assay: Inhibition of human OGG1 assessed as reduction in free Inhibition of human OGG1 assessed as reduction in free FapyGua release using gamma-irradiated calf thymus DNA substrate incubated for 1 hr by GC-MS/MS assay
[5] = target: T4, Formamidopyrimidine-DNA glycosylase (Escherichia coli (strain K12)) (UniProt P05523); assay: Inhibition of Escherichia coli FPG assessed as remaining enzyme activity at 50 uM using 8-oxo-Gua substrate incubated for 10 mins by TAMRA fluorescence-based assay
T4 sequence (whole entry): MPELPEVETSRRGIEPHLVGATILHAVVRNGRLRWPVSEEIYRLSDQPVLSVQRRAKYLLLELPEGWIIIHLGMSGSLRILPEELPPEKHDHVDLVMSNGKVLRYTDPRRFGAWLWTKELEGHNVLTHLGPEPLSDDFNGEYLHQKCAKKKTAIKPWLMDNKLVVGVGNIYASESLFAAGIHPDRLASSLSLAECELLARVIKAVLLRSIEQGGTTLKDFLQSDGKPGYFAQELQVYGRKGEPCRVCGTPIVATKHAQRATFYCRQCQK

Homo sapiens [6] = organism: Homo sapiens; assay: Selectivity index, ratio of IC50 for inhibition of NEIL1 (unknown origin) using Sp/Gh substrate incubated for 40 mins by TAMRA fluorescence-based assay to IC50 for inhibition of human OGG1 incubated for 30 mins using 8-oxo-Gua-containing substrate by TAMRA fluorescence-based assay
N-glycosylase/DNA lyase [7] = target: T3, N-glycosylase/DNA lyase; assay: Inhibition of human OGG1 assessed as protection against NaOH-mediated strand cleavage using AP-containing substrate; set-up: scale not given: the % may be the effect or the level left
[8] = Selectivity index, ratio of IC50 for inhibition of Escherichia coli FPG using 8-oxo-Gua substrate incubated for 10 mins by TAMRA fluorescence-based assay to IC50 for inhibition of human OGG1 incubated for 30 mins using 8-oxo-Gua-containing substrate by TAMRA fluorescence-based assay
[9] = target: T4, Formamidopyrimidine-DNA glycosylase (Escherichia coli (strain K12)); assay: Inhibition of Escherichia coli FPG assessed as reduction in enzyme-mediated incision using compound pre-incubated with 8-oxo-Gua substrate for 30 mins at 37 degC followed by enzyme addition
N-glycosylase/DNA lyase [10] = target: T3, N-glycosylase/DNA lyase; assay: Inhibition of human OGG1 assessed as reduction in free 8-oxo-Gua release using gamma-irradiated calf thymus DNA substrate incubated for 1 hr by GC-MS/MS assay
[11] = target: T1, Endonuclease III-like protein 1 (Homo sapiens); assay: Inhibition of NTH1 (unknown origin) assessed as effect on DNA lesions per 10^6 DNA bases using 5-hydroxycytosine substrate incubated for 1 hr by GC-MS/MS assay
[12] = Binding affinity to duplex DNA (unknown origin) assessed as induction of DNA intercalation at 50 uM incubated for 30 mins by gel electrophoresis
N-glycosylase/DNA lyase [13] = target: T3, N-glycosylase/DNA lyase; assay: Inhibition of human OGG1 catalytic activity assessed as reduction trapping of substrates using AP site containing substrate by measuring concentration of compound needed to reduce borohydride trapping by 50% in presence of sodium cyno-borohydride by gel electrophoresis method
Homo sapiens [14] = organism: Homo sapiens; assay: Selectivity index, ratio of IC50 for inhibition of NTH1 (unknown origin) incubated for 40 mins by TAMRA fluorescence-based assay to IC50 for inhibition of human OGG1 incubated for 30 mins using 8-oxo-Gua-containing substrate by TAMRA fluorescence-based assay
N-glycosylase/DNA lyase [15] = target: T3, N-glycosylase/DNA lyase; assay: Inhibition of human OGG1 catalytic activity assessed as reduction trapping of substrates at 10 uM using AP site containing substrate in presence of sodium cyno-borohydride by gel electrophoresis method
N-glycosylase/DNA lyase [16] = target: T3, N-glycosylase/DNA lyase; assay: Inhibition of human OGG1 assessed as reduction in AP lyase activity using AP-containing substrate
[17] = target: T5, Endonuclease III-like protein 1 (Homo sapiens, UniProt P78549); assay: Inhibition of NTH1 (unknown origin) incubated for 40 mins by TAMRA fluorescence-based assay
T5 sequence (P78549 whole entry): T1 sequence (whole entry)

[18] = target: T1, Endonuclease III-like protein 1 (Homo sapiens); assay: Inhibition of NTH1 (unknown origin) assessed as effect on DNA lesions per 10^6 DNA bases using thymine glycol substrate incubated for 1 hr by GC-MS/MS assay
N-glycosylase/DNA lyase [19] = target: T3, N-glycosylase/DNA lyase; assay: Inhibition of human OGG1 binding to 8-oxo-Gua substrate using compound pre-incubated with enzyme for 5 to 10 mins before substrate addition and further incubated for 5 mins by native gel electrophoresis based by gel-shift assay
N-glycosylase/DNA lyase [20] = target: T3, N-glycosylase/DNA lyase; assay: Inhibition of human OGG1 catalytic activity assessed as reduction trapping of substrates at 10 uM using 8-oxo-Gua substrate in presence of sodium cyno-borohydride by gel electrophoresis method
Endonuclease 8-like 1 [21] = target: T2, Endonuclease 8-like 1; assay: Inhibition of NEIL1 (unknown origin) assessed as effect on DNA lesions per 10^6 DNA bases using 5-OH-5-MeHyd substrate incubated for 1 hr by GC-MS/MS assay
N-glycosylase/DNA lyase [22] = target: T3, N-glycosylase/DNA lyase; assay: Inhibition of human OGG1 catalytic activity assessed as reduction trapping of substrates using 8-oxo-Gua substrate by measuring concentration of compound needed to reduce borohydride trapping by 50% in presence of sodium cyno-borohydride by gel electrophoresis method
[23] = target: T4, Formamidopyrimidine-DNA glycosylase (Escherichia coli (strain K12)); assay: Inhibition of Escherichia coli FPG assessed as reduction in enzyme-mediated incision using compound pre-incubated with AP-site containing DNA substrate for 30 mins at 37 degC followed by enzyme addition
[24] = target: T1, Endonuclease III-like protein 1 (Homo sapiens); assay: Inhibition of NTH1 (unknown origin) assessed as effect on DNA lesions per 10^6 DNA bases using 5-OH-5-MeHyd substrate incubated for 1 hr by GC-MS/MS assay
[25] = target: T6, Formamidopyrimidine-DNA glycosylase (Escherichia coli (strain K12), UniProt P05523); assay: Inhibition of Escherichia coli FPG using 8-oxo-Gua substrate incubated for 10 mins by TAMRA fluorescence-based assay
T6 sequence (P05523 whole entry): T4 sequence (whole entry)

Endonuclease 8-like 1 [26] = target: T2, Endonuclease 8-like 1; assay: Inhibition of NEIL1 (unknown origin) assessed as effect on DNA lesions per 10^6 DNA bases using FapyAde substrate incubated for 1 hr by GC-MS/MS assay
Endonuclease 8-like 1 [27] = target: T2, Endonuclease 8-like 1; assay: Inhibition of NEIL1 (unknown origin) assessed as effect on DNA lesions per 10^6 DNA bases using FapyGua substrate incubated for 1 hr by GC-MS/MS assay
[28] = target: T1, Endonuclease III-like protein 1 (Homo sapiens); assay: Inhibition of NTH1 (unknown origin) assessed as effect on DNA lesions per 10^6 DNA bases using FapyGua substrate incubated for 1 hr by GC-MS/MS assay
[29] = target: T1, Endonuclease III-like protein 1 (Homo sapiens); assay: Inhibition of NTH1 (unknown origin) assessed as effect on DNA lesions per 10^6 DNA bases using FapyAde substrate incubated for 1 hr by GC-MS/MS assay

T3 sequence (O15527 whole entry): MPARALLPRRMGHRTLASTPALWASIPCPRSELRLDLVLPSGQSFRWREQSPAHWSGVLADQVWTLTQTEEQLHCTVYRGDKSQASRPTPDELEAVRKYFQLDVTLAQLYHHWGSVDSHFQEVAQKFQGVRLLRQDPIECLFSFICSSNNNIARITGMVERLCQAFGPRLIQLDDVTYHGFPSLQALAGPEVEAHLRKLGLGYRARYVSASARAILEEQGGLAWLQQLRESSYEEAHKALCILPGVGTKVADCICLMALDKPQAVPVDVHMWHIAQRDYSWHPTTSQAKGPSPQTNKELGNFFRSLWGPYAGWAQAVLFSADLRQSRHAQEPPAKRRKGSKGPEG
T2 sequence (Q96FI4 whole entry): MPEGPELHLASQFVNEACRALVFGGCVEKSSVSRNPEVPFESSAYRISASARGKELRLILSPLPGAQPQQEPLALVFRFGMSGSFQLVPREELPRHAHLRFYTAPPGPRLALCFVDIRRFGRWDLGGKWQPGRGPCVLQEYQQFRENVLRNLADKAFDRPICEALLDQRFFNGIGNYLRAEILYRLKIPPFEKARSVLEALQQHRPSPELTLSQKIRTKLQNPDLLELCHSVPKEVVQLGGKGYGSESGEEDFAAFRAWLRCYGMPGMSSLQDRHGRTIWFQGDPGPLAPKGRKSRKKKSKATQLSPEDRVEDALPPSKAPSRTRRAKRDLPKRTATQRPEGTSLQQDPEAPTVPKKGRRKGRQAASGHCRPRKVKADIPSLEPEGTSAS

Compound	Activity [1] [%]	Activity (Endonuclease 8-like 1 [2]) [%]	IC50 (Endonuclease 8-like 1 [3]) [µM]	Activity [5] [%]	inhibition [9]	inhibition [11]	Activity [12]	IC50 [17] [µM]	inhibition [18]	inhibition (Endonuclease 8-like 1 [21])	inhibition [23]	inhibition [24]	IC50 [25] [µM]	inhibition (Endonuclease 8-like 1 [26])	inhibition (Endonuclease 8-like 1 [27])	inhibition [28]	inhibition [29]	other results
O=C(CCNNC(=O)c1ccncc1)NCc1ccccc1	108	96.4	–	–	–	–	–	–	–	–	–	–	–	–	–	–	–	–
NNC(=O)c1sc2cccc(Cl)c2c1Cl	63.1	84.6	> 50	91.7	inactive	inactive	inactive	> 50	inactive	inactive	inactive	inactive	> 50	inactive	inactive	inactive	inactive	inhibition (N-glycosylase/DNA lyase [4]): Active; Ratio IC50 (Homo sapiens [6]): > 200; Activity (N-glycosylase/DNA lyase [7]): 2%; Ratio IC50 [8]: > 200; inhibition (N-glycosylase/DNA lyase [10]): Active; IC50 (N-glycosylase/DNA lyase [13]): 0.74 µM; Ratio IC50 (Homo sapiens [14]): > 200; inhibition (N-glycosylase/DNA lyase [15]): Active; inhibition (N-glycosylase/DNA lyase [16]): Active; inhibition (N-glycosylase/DNA lyase [19]): inactive; inhibition (N-glycosylase/DNA lyase [20]): Active; IC50 (N-glycosylase/DNA lyase [22]): 1.03 µM
CC1CCCC/C1=N/NC(=O)c1sc2ccccc2c1Cl (stereo not given)	94.8	82.3	> 50	87.3	inactive	inactive	inactive	> 50	inactive	inactive	inactive	inactive	> 50	inactive	inactive	inactive	inactive	–
O=C(NN=C1CCCCC1)c1ccc(Br)cc1	84.5	97.6	> 50	91.7	inactive	inactive	inactive	> 50	inactive	inactive	inactive	inactive	> 50	inactive	inactive	inactive	inactive	–
CCCC/C(C)=N\NC(=O)c1cccc(Br)c1	92.6	101	–	90.9	–	–	inactive	–	–	–	–	–	–	–	–	–	–	–
NNC(=O)COc1cccc2ccccc12	53.6	78.7	–	88.5	–	–	inactive	–	–	–	–	–	–	–	–	–	–	–
C=CCC/C(C)=N\NC(=O)c1cccc(Br)c1	90.6	93.5	–	78.8	–	–	inactive	–	–	–	–	–	–	–	–	–	–	–
C/C(=N\NC(=O)c1cc2ccccc2cc1O)c1ccc2c(c1)OCO2	73	52	–	–	–	–	inactive	–	–	–	–	–	–	–	–	–	–	–
Cc1cc(C(=O)NNCc2ccccc2)no1	105	93.3	–	–	–	–	–	–	–	–	–	–	–	–	–	–	–	inhibition (N-glycosylase/DNA lyase [4]): inactive; inhibition (N-glycosylase/DNA lyase [10]): inactive; inhibition (N-glycosylase/DNA lyase [16]): inactive
